The values below come from patent US3968219A, “Hydroxy phenylbutazone derivatives and their preparation” (Schering Aktiengesellschaft, priority 1974, dated 1976).

The subject of assay [1] is right ear of male rats (edema). Put plainly: Edema test, Tonelli method (croton oil ear edema). The assay is classed as in vivo. The conditions noted are these: in pyridine/water/ether/croton oil irritant, 3 hours after application. The procedure:
The anti-inflammatory activity of the novel hydroxyphenylbutazone derivatives upon topical application can also be determined in accordance with the Tonelli method, as follows:
The compound to be tested is dissolved in an irritant consisting of 4 parts of pyridine, 1 part of distilled water, 5 parts of ether, and 10 parts of a 4% ether croton oil solution. Felt strips attached to the insides of a slide tweezers are saturated with this text solution and pressed under slight pressure for 15 seconds onto the right ear of male rats weighing 100-160 g.
The left ear remains untreated and serves as control. Three hours after application, the animals are sacrificed and disks of a size of 9 mm. are punched out of their ears. The weight difference between the disk from the right ear and that of the left ear is a measure for the thus-formed edema.
The concentrations of effective agent (ED50) are determined which, when employed, cause a 50% reduction in the formation of edema.

Assay [2] concerns stripped skin on the backs of volunteers. Description: vasoconstriction test (topical anti-inflammatory activity on stripped, hyperemic skin). The format is in vivo. The conditions noted are these: for vasoconstriction, colour value (normal skin = 100, untreated stripped skin = 0): 50 mg topical; for activity in vasoconstriction test compared with hydroxyphenylbutazone: topical, Table I, in words. Here is the method:
The topical anti-inflammatory activity of the novel hydroxyphenylbutazone derivatives can be determined employing the conventional vasoconstriction test as follows: On the backs of volunteers for the experiment, the stratum corneum was abraded by the application and tearing off of adhesive tape, conducted 20 times at the same spot, thus producing a pronounced hyperemia. Within the stripped area, respectively 50 mg of ointment containing in each case 0.1% and 0.01%, respectively, of the substance to be tested or of the reference substance in a water-oil base was applied on marked areas. The extent of the vasoconstriction was determined one, four, and eight hours after application. In order to evaluate the vasoconstriction, which is a representative syndrome of topical anti-inflammatory activity the color values of the untreated stripped skin and the treated stripped skin were determined and compred with the color value of the normal skin, wherein the color value of the normal skin was set to be equal to 100 and the color value of the untreated stripped skin was fixed at 0. Minor, moderate, and high-grade vasoconstriction was evaluated with values between 0 and 100. The results are shown in Table I below in which two compounds of this invention (III, IV) were compated with hydroxyphenylbutazone (I) and fluorocortolone.

Molecules are shown by their SMILES.

For `CCCCC1C(=O)N(c2ccccc2)N(c2ccc(O)cc2)C1=O` (stereo not shown) [I, 4-Butyl-1-(4-hydroxyphenyl)-2-phenyl-3,5-pyrazolidinedione], in assay [1], the “ED50 (concentration causing 50% reduction in the formation of edema)” value came to 8000 µg/mL. Also, the “vasoconstriction, colour value (normal skin = 100, untreated stripped skin = 0)” value (from here on “vasoconstriction, colour value”) in assay [2] (0.01% ointment, 1 hour) is 18; in assay [2] (0.01% ointment, 4 hours), 25; in assay [2] (0.01% ointment, 8 hours) it was 24; in assay [2] (0.1% ointment, 1 hour) it was 15; in assay [2] (0.1% ointment, 4 hours) it was 35; in assay [2] (0.1% ointment, 8 hours) it was 33.
Turning to `C[C@@H]1C[C@H]2[C@@H]3C[C@H](F)C4=CC(=O)C=C[C@]4(C)[C@H]3[C@@H](O)C[C@]2(C)[C@H]1C(=O)CO` [II, 6α-Fluoro-11β,21-dihydroxy-16α-methyl-1,4-pregnadiene-3,20-dione], the “ED50 (concentration causing 50% reduction in the formation of edema)” value in assay [1] came out at 3400 µg/mL. Further, the “vasoconstriction, colour value” value in assay [2] (0.01% ointment, 1 hour) is 15; in assay [2] (0.01% ointment, 4 hours), 65; in assay [2] (0.01% ointment, 8 hours) it was 85; in assay [2] (0.1% ointment, 1 hour), 35; in assay [2] (0.1% ointment, 4 hours), 75; in assay [2] (0.1% ointment, 8 hours), 85.
On to `CCCCC1C(=O)N(c2ccccc2)N(c2ccc(OC(=O)CCCCC(=O)Oc3ccc(N4C(=O)C(CCCC)C(=O)N4c4ccccc4)cc3)cc2)C1=O` (stereo not shown) [III, Adipic Acid Bis[4-(4-butyl-3,5-dioxo-2-phenylpyrazolidinyl)-phenyl Ester]], for which the “ED50 (concentration causing 50% reduction in the formation of edema)” value in assay [1] is 2100 µg/mL. For the same compound, the “vasoconstriction, colour value” value in assay [2] (0.01% ointment, 1 hour) is recorded as 34; in assay [2] (0.01% ointment, 4 hours), 66; in assay [2] (0.01% ointment, 8 hours), 70; in assay [2] (0.1% ointment, 1 hour) it was 44; in assay [2] (0.1% ointment, 4 hours), 72; in assay [2] (0.1% ointment, 8 hours), 78. Further, the “activity in vasoconstriction test compared with hydroxyphenylbutazone” value in assay [2] was “substantially more active than hydroxyphenylbutazone”.
As to `CCCCC1C(=O)N(c2ccccc2)N(c2ccc(OC(=O)CCCCCC(=O)Oc3ccc(N4C(=O)C(CCCC)C(=O)N4c4ccccc4)cc3)cc2)C1=O` (stereo not shown) [IV, Pimelic Acid Bis[4-(4-butyl-3,5-dioxo-2-phenylpyrazolidinyl)-phenyl Ester]], the “ED50 (concentration causing 50% reduction in the formation of edema)” value in assay [1] worked out at 4200 µg/mL. In addition, the “vasoconstriction, colour value” value is reported as 44 in assay [2] (0.01% ointment, 4 hours); 49 in assay [2] (0.01% ointment, 8 hours); 65 in assay [2] (0.1% ointment, 4 hours); 67 in assay [2] (0.1% ointment, 8 hours). Further, the “activity in vasoconstriction test compared with hydroxyphenylbutazone” value in assay [2] is recorded as “substantially more active than hydroxyphenylbutazone”.
